Experimental data taken from the NIST ThermoML archive (doi:10.1021/je900290w).
± gives the expanded uncertainty stated by the source.

Assay: cn = amount concentration of the nth substance listed, in mol/dm3

CCCCCCCCCCCCCCCCn1cc[n+](C)c1.[Br-] [1-hexadecyl-3-methylimidazolium bromide] + O
surface tension liquid-gas [mN/m]
Settings | 278.15 K | 288.15 K | 298.15 K | 308.15 K | 318.15 K | 328.15 K
c1 = 5e-06 | 69.16 ± 3.4 | 66.26 ± 3.3 | 63.93 ± 3.2 | 61.53 ± 3.1 | 58.5 ± 2.9 | 55.05 ± 2.8
c1 = 2e-05 | 63.91 ± 3.2 | 61.84 ± 3.1 | 60 ± 3 | 58.48 ± 2.9 | 54.53 ± 2.8 | 51.85 ± 2.6
c1 = 0.0001 | 56.17 ± 2.8 | 52.62 ± 2.7 | 51.14 ± 2.6 | 49.46 ± 2.5 | 47.36 ± 2.4 | 45.42 ± 2.3
c1 = 0.0002 | 50.9 ± 2.6 | 48.63 ± 2.5 | 46.77 ± 2.4 | 45.39 ± 2.3 | 42.7 ± 2.2 | 42.13 ± 2.2
c1 = 0.0003 | 46.66 ± 2.4 | 43.95 ± 2.3 | 43.38 ± 2.2 | 41.17 ± 2.1 | 39.84 ± 2.1 | 39.44 ± 2.1
c1 = 0.0004 | 42.78 ± 2.2 | 41.32 ± 2.2 | 39.38 ± 2.1 | 38.02 ± 2 | 37.93 ± 2 | 38 ± 2
c1 = 0.0005 | 39.25 ± 2.1 | 37.45 ± 2 | 37.26 ± 2 | 36.21 ± 1.9 | 36.75 ± 1.9 | 37.07 ± 2
c1 = 0.0008 | 38.25 ± 2 | 37.54 ± 2 | 37.37 ± 2 | 36.14 ± 1.9 | 36.11 ± 1.9 | 36.2 ± 1.9
c1 = 0.0011 | 38.38 ± 2 | 37.4 ± 2 | 37.09 ± 2 | 36.28 ± 1.9 | 36.18 ± 1.9 | 36.25 ± 1.9
c1 = 0.002 | 38.11 ± 2 | 37.87 ± 2 | 37.19 ± 2 | 36.97 ± 2 | 36.12 ± 1.9 | 36.15 ± 1.9
c1 = 0.004 | 37.61 ± 2 | 37.33 ± 2 | 37.21 ± 2 | 36.37 ± 1.9 | 36.04 ± 1.9 | 35.98 ± 1.9

CCCCCCCCCCCCn1cc[n+](C)c1.[Br-] [1-dodecyl-3-methylimidazolium bromide] + O
surface tension liquid-gas [mN/m]
Settings | c1 = 0.0001 | c1 = 0.0005 | c1 = 0.0015 | c1 = 0.005 | c1 = 0.01 | c1 = 0.02 | c1 = 0.03 | c1 = 0.04 | c1 = 0.05
278.15 K | 64.79 ± 3.2 | 61.21 ± 3.1 | 56.82 ± 2.9 | 45.33 ± 2.3 | 37.64 ± 2 | 37.72 ± 2 | 37.73 ± 2 | 37.53 ± 2 | 37.59 ± 2
288.15 K | 62.93 ± 3.1 | 60.86 ± 3 | 56.68 ± 2.9 | 44.27 ± 2.3 | 37.52 ± 2 | 37.63 ± 2 | 37.41 ± 2 | 37.77 ± 2 | 37.61 ± 2
298.15 K | 62.21 ± 3.1 | 59.84 ± 3 | 55.19 ± 2.8 | 43.81 ± 2.3 | 37.45 ± 2 | 37.41 ± 2 | 37.15 ± 2 | 37.23 ± 2 | 37.26 ± 2
308.15 K | 60.48 ± 3 | 58.62 ± 2.9 | 55.18 ± 2.8 | 44.47 ± 2.3 | 37.18 ± 2 | 37.55 ± 2 | 37.38 ± 2 | 37.42 ± 2 | 37.23 ± 2
318.15 K | 58.84 ± 2.9 | 56.56 ± 2.9 | 53.88 ± 2.7 | 43.89 ± 2.3 | 36.92 ± 2 | 37.12 ± 2 | 37.47 ± 2 | 37.3 ± 2 | 37.06 ± 2
328.15 K | 57.61 ± 2.9 | 55.07 ± 2.8 | 50.63 ± 2.6 | 42.36 ± 2.2 | 37.64 ± 2 | 37.03 ± 2 | 37.16 ± 2 | 37.06 ± 2 | 37.09 ± 2

CCCCCCCCCCCCCCn1cc[n+](C)c1.[Br-] [1-methyl-3-tetradecylimidazolium bromide] + O
surface tension liquid-gas [mN/m]
Settings | c1 = 5e-05 | c1 = 0.0001 | c1 = 0.0003 | c1 = 0.0005 | c1 = 0.001 | c1 = 0.002 | c1 = 0.004 | c1 = 0.006 | c1 = 0.008 | c1 = 0.01
278.15 K | 64.69 ± 3.2 | 64.07 ± 3.2 | 61.72 ± 3.1 | 55.17 ± 2.8 | 50.32 ± 2.6 | 41.28 ± 2.2 | 38.44 ± 2 | 38.68 ± 2 | 38.88 ± 2.1 | 38.88 ± 2.1
288.15 K | 62.69 ± 3.1 | 62.07 ± 3.1 | 59.72 ± 3 | 53.17 ± 2.7 | 48.32 ± 2.5 | 40.28 ± 2.1 | 37.94 ± 2 | 38.18 ± 2 | 38.38 ± 2 | 38.38 ± 2
298.15 K | 61.26 ± 3.1 | 60.88 ± 3 | 57.1 ± 2.9 | 52.79 ± 2.7 | 47.37 ± 2.4 | 39.48 ± 2.1 | 37.81 ± 2 | 37.73 ± 2 | 37.57 ± 2 | 37.57 ± 2
308.15 K | 59.5 ± 3 | 58.59 ± 2.9 | 54.93 ± 2.8 | 51.51 ± 2.6 | 45.26 ± 2.3 | 39.15 ± 2.1 | 37.81 ± 2 | 37.51 ± 2 | 37.67 ± 2 | 37.6 ± 2
318.15 K | 57.16 ± 2.9 | 55.92 ± 2.8 | 52.9 ± 2.7 | 49.56 ± 2.5 | 43.88 ± 2.3 | 39.15 ± 2.1 | 37.12 ± 2 | 37.13 ± 2 | 37.12 ± 2 | 37.13 ± 2
328.15 K | 54.16 ± 2.7 | 52.7 ± 2.7 | 50.17 ± 2.6 | 46.39 ± 2.4 | 42.75 ± 2.2 | 38.28 ± 2 | 36.2 ± 1.9 | 36.32 ± 1.9 | 36.58 ± 1.9 | 36.45 ± 1.9
